Reference: patent publication US20240226054A9, “AGENTS AND METHODS FOR PREVENTING AND TREATING SKELETAL MUSCLE DISEASES” (The Regents Of the University of California, priority 2022, published 2024)
Entries after “also recorded” stand apart in the source; their conditions may differ. Like-named read-outs stand apart in the source and are kept apart here.

Legend:
[1] = tested on: soleus muscle from the Nav1.4-R669H mouse; assay type: cell-based
Experimental: (§1) Mouse Model of HypoPP. Knock-in mutant mouse models of HypoPP were previously generated; Type 1 with a missense mutation of the Cav1.1 calcium channel (Cacnals p.R528H) and Type 2 with a missense mutation of the Nav1.4 sodium channel (Scn4a p.R663H) homologous to the p.R669H missense mutation in patients with HypoPP Type 2. Mutant mice have a robust HypoPP phenotype with loss of force and paradoxical depolarization of skeletal muscle in response to a challenge in low extracellular [K^+] (<3 mM) or to intravenous administration of insulin plus glucose.
Ex vivo Contraction Studies. The outcome measure for susceptibility to HypoPP was the peak isometric force of the soleus muscle, in response to a tetanic stimulation, as previously described. In brief, after euthanizing the animal, the extensor digitorum longus (EDL) muscle or the soleus muscle was dissected free and suspended in a tissue bath held at 37° C. […] Muscles were suspended in a bicarbonate-buffered bath that was bubbled continuously with 5% CO2/95% 02 to maintain a pH of 7.4. The standard bath consisted of (in mM): 118 NaCl, 4.75 KCl, 1.18 MgSO4, 2.54 CaCl2), 1.18 NaH2PO4, 10 glucose, and 24.8 NaHCO3. The low-K^+ solution was identical, except for the reduction of KCl to 2 mM by replacement with NaCl. The osmolality of all solutions was 290 mOsm. Retigabine (gift from Prof. M. Taglialatela, Univ. […] The Kv7 inhibitor, XE991 (Sigma-Aldrich), was prepared in as a 100 mM DMSO stock solution and applied to muscle in a […] bath solution.
Electrical stimulation was applied by a pair of platinum wires, oriented perpendicular to the long axis of the soleus muscle. Suprathreshold stimulation (80 mA) was applied as a tetanic burst (40 pulses, 0.4 msec, at 100 Hz), under computer control. All bath solutions contained 0.25 mM D-tubocurarine (Sigma-Aldrich) to prevent any contribution to muscle excitation from motor nerve endings. Muscle force was measured with a stiff strain gain (Forte 25, World Precision Instruments) and digitally sampled at 5 KHz. Muscle contractility was monitored by measuring the peak isometric force every two minutes, and test solutions were applied by complete exchange of the bath solution.
The efficacy of potassium channel openers to prevent the loss of force in HypoPP muscle was assessed by measuring isometric contractions, ex vivo, in both control (4.7 mM) and low extracellular [K^+] (2.0 mM). The HypoPP phenotype is shown for the drug-free responses of the soleus muscle from an Nav1.4-R669H mouse in the left panel of FIG. 1A. The peak isometric force during the tetanic contraction (100 Hz stimulation) was initially 11.7 gm in control [K^+], and then decreased to 7.6 gm (35% decrease) after 4 min. in 2 mM [K^+]. The loss of force is reversible, upon return to 4.7 mM [K^+] (e.g., see FIG. 1B).
A method to quantify the extent of protection from loss of force by retigabine is illustrated in FIG. 2. This example was selected to illustrate the maximum variability in the extent of protection for the oscillations of soleus muscle force within a single trial (compare the responses at 24 min to those at 40 min.). […] The relative protection was calculated from the responses for each pair of soleus muscles from the same mouse serving as an internal control. In almost every trial (22 out of 24), two clear minima occurred during the 30 min. low-K^+ challenge. The relative protection for the retigabine response, defined as 1−(force loss in retigabine)/(force loss in control) was calculated for each of the two minima, and the average value was used as the quantitative estimate for the retigabine protection in that trial. Each soleus muscle was used for only a single trial (i.e. control or retigabine) because cumulative effects and run-down may occur if this long protocol (typically 70 min.) was repeated.

[2] = tested on: human HypoPP muscle; settings: 100 mM pinacidil; cited from earlier work
[3] = tested on: rat; settings: 30 mg/kg retigabine; cited from earlier work
[4] = tested on: EDL fibers from the Nav1.4-R669H mouse; assay: Membrane potential measurements (resting potential, microelectrode impalement); assay type: cell-based
Experimental: Membrane Potential Measurements. The membrane potential was recorded by impalement of superficial fibers from an ex vivo whole mount of the EDL muscle. Long-duration stable recording of the resting potential was achieved by using an orthogonal approach to the fiber with fine-tipped microelectrodes (resistance of 15-20 MW, filled with 3 M KCl). The bath solution was the same as that used for the ex vivo contraction studies, continuously bubbled with 5% CO2/95% O2, with a flow rate of ˜3 ml/min of the 0.3 ml recording chamber.
The impairment of contraction during an episode of HypoPP is caused by sustained depolarization, which inactivates sodium channels and reduces muscle fiber excitability. In HypoPP, ictal depolarization of the resting potential (Vrest) paradoxically occurs in low K^+ that would normally hyperpolarize the membrane from a negative shift of the K^+ Nernst potential (EK). It was tested whether retigabine prevents or reverses this paradoxical depolarization of HypoPP fibers exposed to low K^+. […] Reduction of K^+ to 2 mM or even 1 mM caused hyperpolarization of WT fibers, as expected from the negative shift of EK (FIG. 5A, gray shaded regions). At an extremely low K^+ of 0.5 mM, even WT fibers paradoxically depolarized (magenta region) as previously described. For EDL fibers from the Nav1.4-R669H mouse, the more modest K^+ reductions to 2 mM or 1 mM elicited paradoxical depolarization, which is the membrane potential equivalent of ictal HypoPP. […] These observations support the view that the beneficial effects of retigabine occur by a stabilizing effect on the normally polarized value of Vrest.

[5] = tested on: mouse; settings: 30 mg/kg retigabine; cited from earlier work
[6] = tested on: EDL muscle from the Cav1.1-R528H mouse; assay: Ex vivo contraction test, low-K+ challenge, HypoPP EDL muscle; assay type: cell-based
Experimental: as §1
Ex vivo Contraction Studies. The outcome measure for susceptibility to HypoPP was the peak isometric force of the soleus muscle, in response to a tetanic stimulation, as previously described. In brief, after euthanizing the animal, the extensor digitorum longus (EDL) muscle or the soleus muscle was dissected free and suspended in a tissue bath held at 37° C. […] Muscles were suspended in a bicarbonate-buffered bath that was bubbled continuously with 5% CO2/95% 02 to maintain a pH of 7.4. The standard bath consisted of (in mM): 118 NaCl, 4.75 KCl, 1.18 MgSO4, 2.54 CaCl2), 1.18 NaH2PO4, 10 glucose, and 24.8 NaHCO3. […]
Electrical stimulation was applied by a pair of platinum wires, oriented perpendicular to the long axis of the soleus muscle. […] Muscle force was measured with a stiff strain gain (Forte 25, World Precision Instruments) and digitally sampled at 5 KHz. Muscle contractility was monitored by measuring the peak isometric force every two minutes, and test solutions were applied by complete exchange of the bath solution.
A method to quantify the extent of protection from loss of force by retigabine is illustrated in FIG. 2. […] The relative protection was calculated from the responses for each pair of soleus muscles from the same mouse serving as an internal control. […] The relative protection for the retigabine response, defined as 1−(force loss in retigabine)/(force loss in control) was calculated for each of the two minima, and the average value was used as the quantitative estimate for the retigabine protection in that trial. […]

[7] = cited from earlier work
[8] = tested on: pharmacological model of Andersen-Tawil Syndrome (barium blocks Kir potassium channels); assay: Low K challenge in pharmacological model of Andersen-Tawil Syndrome (50 μM barium); assay type: cell-based; settings: pre-administration of 10 μM retigabine
Experimental: A pharmacological model of Andersen-Tawil Syndrome (ATS) is created, in vitro, with a low concentration of barium (50 μM), which blocks Kir potassium channels. Kir2.1 is deficient from loss of function mutations of the KCNJ2 gene in ATS.

[9] = tested on: mouse muscle (mouse models of myotonia); settings: cited from earlier work
[10] = target: Kv7.1 (Homo sapiens, UniProt P51787); settings: cited from earlier work
[11] = tested on: soleus muscle obtained from the knock-in mutant mouse model of HyperPP; assay: In vitro contraction test, high K challenge, HyperPP soleus muscle; assay type: cell-based
Experimental: The two paired muscles (left and right) were tested in separate organ baths. […] At 40 min into the study, a high K challenge was performed by exchanging the 4.7 mM K+ bath with one containing 10 mM K+.

[12] = chronic use as antiepileptic, cited from earlier work

Sequence of Kv7.1 (P51787 whole entry): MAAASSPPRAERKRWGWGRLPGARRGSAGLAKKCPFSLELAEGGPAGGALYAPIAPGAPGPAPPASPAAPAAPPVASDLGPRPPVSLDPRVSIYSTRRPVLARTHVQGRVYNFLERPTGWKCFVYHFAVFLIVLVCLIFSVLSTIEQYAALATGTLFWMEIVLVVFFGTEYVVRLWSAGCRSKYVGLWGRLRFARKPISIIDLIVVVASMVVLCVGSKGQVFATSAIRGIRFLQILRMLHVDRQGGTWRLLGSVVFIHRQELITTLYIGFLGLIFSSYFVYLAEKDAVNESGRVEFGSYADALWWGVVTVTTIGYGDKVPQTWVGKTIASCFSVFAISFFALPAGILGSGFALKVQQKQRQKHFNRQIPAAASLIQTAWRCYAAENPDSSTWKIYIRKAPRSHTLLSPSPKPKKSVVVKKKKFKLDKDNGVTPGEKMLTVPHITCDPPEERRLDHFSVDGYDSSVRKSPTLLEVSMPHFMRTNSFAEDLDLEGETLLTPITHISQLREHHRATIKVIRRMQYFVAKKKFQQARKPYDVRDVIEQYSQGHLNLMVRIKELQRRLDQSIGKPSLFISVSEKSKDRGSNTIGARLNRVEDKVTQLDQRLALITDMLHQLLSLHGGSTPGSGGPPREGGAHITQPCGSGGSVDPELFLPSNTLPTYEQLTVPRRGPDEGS

**Q.** For `Cc1cc(N2CCc3cc(F)ccc3C2)cc(C)c1NC(=O)CC(C)(C)C` [XEN1101, N-[4-(6-fluoro-3,4-dihydro-1H-isoquinolin-2-yl)-2,6-dimethylphenyl]-3,3-dimethylbutanamide], which “increase in baseline force” value ([1]; XEN1101 10 μM at 10 min) is on record?
**A.** Its value is 20%.

**Q.** For `CC(N/C(=N\C#N)Nc1ccncc1)C(C)(C)C` (centres unmarked) [pinacidil], which “protection from loss of force in a low-K+ challenge” value ([1]; pinacidil pre-treatment) is on record?
**A.** Its value is “protects HypoPP muscle from a loss of force”.

**Q.** What about the “protection against loss of force” value [2] of the same compound?
**A.** Its value is “protect against loss of force”.

**Q.** Which “force with tetanic contractions lasting seconds” value [3] does the source give for `CCOC(=O)Nc1ccc(NCc2ccc(F)cc2)cc1N` [retigabine, ethyl [2-amino-4-[[(4-fluorophenyl)methyl]amino]phenyl]carbamate] here?
**A.** The value was “loss of force”.

**Q.** What about the “Vrest of normally polarized muscle fibers” value ([4]; 4.7 K+, retigabine added) of the same compound?
**A.** The value was “does not affect Vrest”.

**Q.** What about the “resting potential of paradoxically depolarized HypoPP fibers (rescue)” value ([4]; retigabine added while low K+ unchanged) of the same compound?
**A.** Its value is “repolarized to the normal Vrest; also recorded: induced fiber repolarization”.

**Q.** And the “paradoxical depolarization of HypoPP fibers during low K+ challenge (protection)” value ([4]; retigabine applied before low K+ (1.0 or 2.0 mM))?
**A.** Its value is “prevented the paradoxical depolarization”.

**Q.** What about the “force with tetanic contractions lasting seconds” value [5] of the same compound?
**A.** The value was “loss of force”.

**Q.** What about the “relative peak force, sustained value after recovery” value ([6]; 10 μM retigabine in 2 mM K+, EDL) of the same compound?
**A.** The value was 0.83.

**Q.** And the “recovery from on-going loss of force in low K+” value ([6]; 10 μM retigabine, vs contralateral control)?
**A.** The value was “Rescue; also recorded: induced a recovery of relative peak force”.

**Q.** And the “relative force before the low-K+ challenge on addition of retigabine” value ([6]; 0.1 to 20 mM, Cav1.1-R528H EDL)?
**A.** The value was “not affected”.

**Q.** And the “protection from low-K+ induced loss of force” value ([1]; 1 μM retigabine pre-treatment)?
**A.** The value was “substantial protection”.

**Q.** What about the “loss of peak force during 30 min challenge with 2 mM K+” value ([1]; 2 μM retigabine pre-treatment) of the same compound?
**A.** Its value is “markedly attenuated the loss of peak force”.

**Q.** And the “trials with enhanced recovery” value ([1]; 10 μM retigabine applied during 2 mM K+)?
**A.** Its value is 5 of 6.

**Q.** And the “relative peak force, sustained value after recovery” value ([1]; 10 μM retigabine in 2 mM K+, soleus)?
**A.** The value was 0.83.

**Q.** What about the “protection from low-K+ induced loss of force” value ([1]; 10 μM retigabine pre-treatment, K+ 4.7 mM to 2 mM) of the same compound?
**A.** Its value is “completely suppressed any detectable loss of force”.

**Q.** And the “relative force in the 2 mM [K+] challenge” value ([1]; 10 μM retigabine pre-treatment, representative responses FIG. 1B)?
**A.** The value was over 0.85.

**Q.** What about the “improved level of tetanic force in retigabine, of baseline” value ([1]; 10 μM retigabine, still in 2 mM K+ bath, n=3) of the same compound?
**A.** Its value is 83.2%.

**Q.** What about the “relative force before the low-K+ challenge on addition of retigabine” value ([1]; 0.1 to 20 mM, Nav1.4-R669H soleus) of the same compound?
**A.** Its value is “not affected”.

**Q.** And the “baseline force in 4.7 mM K+” value ([1]; bath containing 10 μM retigabine)?
**A.** Its value is “unchanged”.

**Q.** And the “impairment of peak isometric force” value ([1]; up to 20 μM retigabine, 400 msec tetanic contraction every two minutes for two hrs)?
**A.** The value was “no impairment”.

**Q.** And the “protein binding (assumed)” value ([7]; assumption for unbound fraction)?
**A.** Its value is 80%.

**Q.** What about the Cmax ([7]; single 100 mg oral dose) of the same compound?
**A.** The Cmax was 390 ng/mL.

**Q.** And the half-life ([7]; single 100 mg oral dose)?
**A.** The half-life was 8 h.

**Q.** What about the “prevention of loss of muscle force with a low K challenge (2 mM)” value [8] of the same compound?
**A.** The value was “effective a preventing the loss of muscle force”.

**Q.** And the “fiber input resistance, resting potential or action potential properties (current-clamp)” value ([9]; 20 mM retigabine)?
**A.** Its value is “did not detect a change”.

**Q.** What about the “reduction of ex vivo tetanic force” value ([9]; 20 or 30 mM retigabine) of the same compound?
**A.** Its value is “did not report a reduction”.

**Q.** What about the “after-discharges in mouse models of myotonia” value ([9]; low-dose retigabine) of the same compound?
**A.** The value was “suppresses after-discharges”.

**Q.** What about the “sensitivity of Kv7.1 to retigabine relative to Kv7.2-Kv7.5 (fold less sensitive)” value [10] of the same compound?
**A.** Its value is 100 fold.

**Q.** And the “attenuation of the loss of force” value ([11]; 10 μM retigabine pre-treatment, 10 mM K+ challenge)?
**A.** Its value is “about 50%”.

**Q.** And the “maximal force after retigabine before challenge (relative)” value ([11]; 10 μM retigabine, 4.7 mM K+)?
**A.** The value was “about 1.0”.

**Q.** And the “prevention of loss of force in HyperPP model” value ([11]; retigabine (10 μM))?
**A.** The value was “partially effective”.

**Q.** And the “recovery of force on return of bath K+ to 4.7 mM” value ([11]; retigabine exposed muscle)?
**A.** The value was “full recovery of force”.

**Q.** What about the “side effects leading to discontinuation” value [12] of the same compound?
**A.** Its value is “skin discoloration”.

**Q.** And the “side effects leading to discontinuation” value ([12]; listed as Retigabine)?
**A.** Its value is “skin discoloration and eye abnormalities”.
